As usually defined, the inhibition is the drop in the measured response relative to a control, in per cent. As usually defined, the IC50 is the point on the concentration scale where inhibition reaches its midpoint. Read a low IC50 as greater potency.

Counter-ions that a name gives are not always drawn.

This note sets out measurements from patent US9115072B2, “Compounds and method for reducing uric acid” (WELLSTAT THERAPEUTICS CORPORATION, priority 2008, dated 2015).

In this assay the target is T1, human URAT1 (Homo sapiens, UniProt Q96S37).
T1 construct: The full-length hURAT1 cDNA was obtained from the vector pCMV6-XL5 and subcloned into the expression vector pCMV6-Neo
T1 sequence (Q96S37 1-553): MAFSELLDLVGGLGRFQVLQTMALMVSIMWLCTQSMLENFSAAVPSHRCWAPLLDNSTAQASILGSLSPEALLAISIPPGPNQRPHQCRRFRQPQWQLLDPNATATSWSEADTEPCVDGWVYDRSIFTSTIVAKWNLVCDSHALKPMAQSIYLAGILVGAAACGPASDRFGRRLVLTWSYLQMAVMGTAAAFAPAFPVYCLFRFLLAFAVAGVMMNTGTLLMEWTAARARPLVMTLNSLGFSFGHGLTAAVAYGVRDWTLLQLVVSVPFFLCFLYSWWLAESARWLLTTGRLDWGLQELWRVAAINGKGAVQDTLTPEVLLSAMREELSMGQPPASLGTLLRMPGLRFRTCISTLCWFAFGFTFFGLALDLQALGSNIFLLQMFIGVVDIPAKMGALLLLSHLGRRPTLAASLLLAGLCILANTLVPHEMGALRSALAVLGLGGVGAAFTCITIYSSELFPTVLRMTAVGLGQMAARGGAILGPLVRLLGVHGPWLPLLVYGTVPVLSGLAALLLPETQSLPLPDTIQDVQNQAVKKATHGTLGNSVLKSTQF
The assay can be described thus: URAT1 inhibition assay, [8-14C] urate uptake in hURAT1-HEK cells. To be noted: 50 μM [8-14C] urate; for inhibition at 10 µM: drug concentration typically 10 micromolar, read-out: % of Inhibition (uric acid uptake). The assay is classed as cell-based. On the procedure: A suitable assay involves transfection of cells (e.g. human embryonic kidney cells; “HEK”) with a vector encoding human URAT1, followed by determination of the ability of transfected cells to take up radiolabeled uric acid. The activity of compounds as URAT1 inhibitors is evaluated by their ability to block uric acid uptake by transfected cells.
Urate (50-60 mCi/mmol; American Radio Chemicals, Cat. No. ARC0513).
Plasmid vector pCMV6-XL5 containing hURAT1 cDNA (Cat. No. SC125624) and the expression vector pCMV6-Neo (Cat. No. pCMVNEO) were obtained from OriGene Technologies, Inc. The full-length hURAT1 cDNA was obtained from the vector pCMV6-XL5 and subcloned into the expression vector pCMV6-Neo to create the hURAT1 expression plasmid pCMV6-hURAT1. The sequences were verified by automatic DNA sequencing.
For transfection experiments, cells were plated on 60 mm dishes in 1 ml media per dish. […] Stable transfectants expressing hURAT1 (herein after referred as hURAT1-HEK cells) or cells having only the expression vector pCMV6-Neo (herein after referred as mock-HEK cells) were verified using reverse transcription polymerase chain reaction (RT-PCR) methods.
Before the uptake assay started, the culture medium was removed and the cells were incubated for 5 min in 0.6 ml of HBSS. After that HBSS was removed, the prepared reaction solutions were added into each well and incubated for 5 min at room temperature. Then the reaction solution was removed, cells were washed twice with 0.6 ml of cold HBSS and lysed with 0.2 ml of 0.1 M NaOH for 20 min. […] Test compounds were dissolved in DMSO and the same concentration of DMSO was added into the wells of mock-HEK cells and the hURAT1-HEK cells that didn't contain test compounds. For each test compound, the uptake assay was performed 2 times and carried out in triplicate. Urate uptake of the cells for each test condition was presented as the average percent inhibition in comparison to the DMSO control. The radioactivity values obtained for the wells that contained DMSO were taken as 100% uptake of the cells. The observed concentration-percent inhibition data were fitted to a sigmoidal concentration-effect model, where: IC50^Slope=[(100*Conc^Slope)/% Inhibition]−Conc^Slope
Additional drug concentrations were tested for determination of IC-50 values for some compounds (Table 6).

Turning to `COc1ccccc1COc1ccc(C(=O)CCC(=O)O)cc1` [AB, 4-(4-(2-Methoxybenzyloxy)phenyl)-4-oxobutanoic acid], the inhibition at 10 µM is 3.7%.

Regarding `O=C(O)CCC(=O)c1ccc(OCc2ccccn2)cc1` [AF, 4-oxo-4-(4-(pyridin-2-ylmethoxy)phenyl)butanoic acid], the inhibition at 10 µM is 41.3%.

As to `O=C(O)CCC(=O)c1ccc(OCc2ccccc2)cc1` [AG, 4-(4-(Benzyloxy)phenyl)-4-oxobutanoic acid], the inhibition at 10 µM came out at 5.99%.

On to `O=C(O)CCC(=O)c1ccc(OCc2c(F)cccc2F)cc1` [AH, 4-(4-(2,6-Difluorobenzyloxy)phenyl)-4-oxobutanoic acid], for which the inhibition at 10 µM turned out to be 26.8%.

On to `O=C(O)CCC(=O)c1ccc(OCc2ccccc2Cl)cc1` [AI, 4-(4-(2-Chlorobenzyloxy)phenyl)-4-oxobutanoic acid], for which the inhibition at 10 µM amounted to 2.3%.

As for `CN(CCOc1ccc(C(=O)CCC(=O)O)cc1)Cc1ccccc1F` [AM, 4-(4-(2-((2-Fluorobenzyl)(methyl)amino)ethoxy)phenyl)-4-oxobutanoic acid hydrochloride], the inhibition at 10 µM amounted to 0%.

As for `Cc1ccccc1COc1cccc(C(=O)CCC(=O)O)c1` [AN, 4-(3-(2-Methylbenzyloxy)phenyl)-4-oxobutanoic acid], the inhibition at 10 µM was found to be 54.4%.

In the case of `Cc1ccc(C)c(COc2ccc(C(=O)CCC(=O)O)cc2)c1` [AT, 4-(4-(2,5-Dimethylbenzyloxy)phenyl)-4-oxobutanoic acid], the inhibition at 10 µM was 7.95%.

`O=C(O)CCC(=O)c1cccc(OCc2c(F)cccc2F)c1` [AW, 4-(3-(2,6-Difluorobenzyloxy)phenyl)-4-oxobutanoic acid]: the inhibition at 10 µM is 61.9%.

Regarding `O=C(O)CCC(=O)c1ccc(OCc2ccccc2C(F)(F)F)cc1` [AY, 4-(4-(2-Trifluoromethylbenzyloxy)phenyl)-4-oxobutanoic acid], the inhibition at 10 µM amounted to 8.9%.

In the case of `O=C(O)CCC(=O)c1cccc(OCC2CC2)c1` [BH, 4-(3-(Cyclopropylmethoxy)phenyl)-4-oxobutanoic acid], the inhibition at 10 µM came to 62.4%.

On to `Cc1cccc(F)c1COc1cccc(C(=O)CCC(=O)O)c1` [BJ, 4-(3-(2-Fluoro-6-methylbenzyloxy)phenyl)-4-oxobutanoic acid], for which the inhibition at 10 µM turned out to be 81.8%.

Regarding `Cc1cccc(C)c1COc1ccc(C(=O)CCC(=O)O)cc1` [BM, 4-(4-(2,6-Dimethylbenzyloxy)phenyl)-4-oxobutanoic acid], the inhibition at 10 µM was determined as 22.2%.

As to `Cc1cccc(C)c1COc1cccc(C(=O)CC(C)(C)C(=O)O)c1` [BP, 4-(3-(2,6-Dimethylbenzyloxy)phenyl)-2,2-dimethyl-4-oxobutanoic acid], inhibition was half-maximal at 4390 nM (IC50) and the inhibition at 10 µM is 76.5%.

In the case of `Cc1cccc(C)c1COc1cccc(CCCC(=O)O)c1` [BS, 4-(3-(2,6-Dimethylbenzyloxy)phenyl)butanoic acid], the inhibition at 10 µM came out at 28.6%.

Consider `COc1cc(C(=O)CCC(=O)O)ccc1OCc1c(C)cccc1C` [BT, 4-(4-(2,6-Dimethylbenzyloxy)-3-methoxyphenyl)-4-oxobutanoic acid], for which the inhibition at 10 µM amounted to 51.8%.

In the case of `Cc1cccc(C)c1COc1cccc(C(=O)CCCC(=O)O)c1` [CD, 5-(3-(2,6-Dimethylbenzyloxy)phenyl)-5-oxopentanoic acid], the inhibition at 10 µM was 63.5%.

With `Cc1cccc(C)c1COc1cccc(CC(=O)O)c1` [CF, 3-(2,6-Dimethylbenzyloxy)phenylacetic acid], the midpoint of inhibition, the IC50, lay at 530 nM and the inhibition at 10 µM is 96.5%.

Take `Cc1cccc(C)c1COc1cccc(CCCCC(=O)O)c1` [CK, 5-(3-(2,6-Dimethylbenzyloxy)phenyl)pentanoic acid]: the IC50 is 2690 nM and the inhibition at 10 µM was 88%.

`Cc1cccc(C)c1COc1cccc(CCC(=O)O)c1` [CM, 3-(3-(2,6-Dimethylbenzyloxy)phenyl)propanoic acid]: the IC50 amounted to 1010 nM and the inhibition at 10 µM is 89%.

Take `Cc1cccc(C)c1COc1cccc(C(=O)C(=O)O)c1` [CQ, 2-(3-(2,6-Dimethylbenzyloxy)phenyl)-2-oxoacetic acid]: the IC50 worked out at 1330 nM and the inhibition at 10 µM was 84.8%.

Consider `Cc1cccc(C)c1COc1cccc([C@H](O)CCC(=O)O)c1` [CR, 4-(3-(2,6-Dimethylbenzyloxy)-phenyl)-4(R)-hydroxybutanoic acid], for which the inhibition at 10 µM was 60.6%.

Regarding `O=C(O)Cc1cccc(OCc2ccc(C(F)(F)F)cc2C(F)(F)F)c1` [DN, 2-(3-(2,4-bis(trifluoromethyl)benzyloxy)phenyl)acetic acid], the inhibition at 10 µM was 45.4%.

Turning to `Cc1cccc(C)c1COc1ccc(CC(=O)O)cc1` [DO, 2-(4-(2,6-Dimethylbenzyloxy)phenyl)acetic acid], the inhibition at 10 µM was 80.3%.

Turning to `Cc1cccc(C)c1C(=O)Oc1cccc(C(=O)CCC(=O)O)c1` [DP, 4-(3-(2,6-Dimethylbenzoyloxy)phenyl)-4-oxobutanoic acid], the inhibition at 10 µM is 60.5%.

On to `COc1ccc(CC(=O)O)cc1OCc1c(C)cccc1C` [DQ, 2-(3-(2,6-Dimethylbenzyloxy)-4-methoxyphenyl)acetic acid], for which the IC50 came out at 180 nM and the inhibition at 10 µM turned out to be 99.4%.

Consider `O=C(O)Cc1cccc(OCc2c(F)cccc2F)c1` [DR, 2-(3-(2,6-Difluorobenzyloxy)phenyl)acetic acid], for which the inhibition at 10 µM worked out at 68.3%.

`O=C(O)CCC(=O)c1cccc(OCc2c(Cl)cccc2Cl)c1` [DS, 4-(3-(2,6-Dichlorobenzyloxy)phenyl)-4-oxobutanoic acid]: the inhibition at 10 µM was determined as 75%.

Take `Cc1cccc(C)c1COc1cccc(C(C)C(=O)O)c1` (stereo not shown) [DT, 2-(3-(2,6-Dimethylbenzyloxy)phenyl)propanoic acid]: the inhibition at 10 µM was determined as 89.1%.

Consider `O=C(O)Cc1cccc(OCc2ccc(C(F)(F)F)cc2)c1` [DU], for which the inhibition at 10 µM is 30.5%.

With `CCC(C(=O)O)c1cccc(OCc2c(C)cccc2C)c1` (stereo not shown) [DV, 2-(3-(2,6-Dimethylbenzyloxy)phenyl)butanoic acid], the IC50 was found to be 890 nM and the inhibition at 10 µM worked out at 79.5%.

For `Cc1cc(C)cc(COc2cccc(CC(=O)O)c2)c1` [DW, 2-(3-(3,5-Dimethylbenzyloxy)phenyl)acetic acid], the inhibition at 10 µM worked out at 54%.

With `Cc1ccc(COc2cccc(CC(=O)O)c2)c(C)c1` [DX, 2-(3-(2,4-Dimethylbenzyloxy)phenyl)acetic acid], the inhibition at 10 µM was determined as 64%.

Take `COc1cccc(OC)c1COc1cccc(CC(=O)O)c1` [DY, 2-(3-(2,6-Dimethoxylbenzyloxy)phenyl)acetic acid]: the IC50 came to 1880 nM and the inhibition at 10 µM was 85.2%.

For `O=C(O)Cc1cccc(OCc2ccccc2)c1` [DZ, 2-(3-(Benzyloxy)phenyl)acetic acid], the inhibition at 10 µM came out at 26.9%.

As to `Cc1cccc(C)c1COc1ccccc1CC(=O)O` [EA, 2-(2-(2,6-Dimethylbenzyloxy)phenyl)acetic acid], the inhibition at 10 µM was found to be 49%.

`COC(=O)CC(=O)c1cccc(OCc2c(C)cccc2C)c1` [EB, Methyl 3-(3-(2,6-dimethylbenzyloxy)phenyl)-3-oxopropanoate]: the inhibition at 10 µM came to 21.6%.

Consider `Cc1cccc(C)c1COc1cccc(C(C)C(=O)O)c1` (stereo not shown) [EC, 2-(3-(2,6-Dimethylbenzyloxy)phenyl)propanoic acid], for which inhibition was half-maximal at 330 nM (IC50).

In the case of `Cc1cccc(C)c1COc1cccc(C(C)(C)C(=O)O)c1` [EE, 2-(3-(2,6-Dimethylbenzyloxy)phenyl)-2-methylpropanoic acid], the inhibition at 10 µM was 90.1%.

Take `Cc1cccc(C)c1COc1cccc(C2(C(=O)O)CC2)c1` [EF, 1-(3-(2,6-Dimethylbenzyloxy)phenyl)cyclopropanecarboxylic acid]: it took 590 nM to reach half-maximal inhibition (IC50) and the inhibition at 10 µM came out at 90.3%.
